Eight molecules from PubChem BioAssay (NCI) can be followed below.

Test systems include 786-0 renal; COLO 205 colon; EKVX NSCLC; HCC-2998 colon; HCT-15 colon; HOP-62 NSCLC; KM12 colon; MCF7 breast; NCI-H226 lung; T-47D breast.
What all share (assay): NCI anticancer screen, dose series, 48 h

SMILES strings stand for the structures. Values joined by “and” are separate entries in the source; they are usually repeats but may differ in a detail not shown here. Identical values can stand only once.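 Protocol summary: plate cells (96-well), add compound at 5 concentrations, incubate 48 h, interpolate endpoints linearly. GI50: concentration for 50% inhibition of growth. TGI is the concentration that stops growth completely.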 Some results are limits rather than exact numbers.

Take `CCCCCCCCn1ccc2cc(NC(=O)Cn3cc(CN4CCCCC4)nn3)ccc21`: the GI50 in the test on 786-0 renal was 1.8 µM; in the test on COLO 205 colon it was 1.84 µM; in the test on EKVX NSCLC, 2.89 µM; in the test on HCC-2998 colon, 1.66 µM; with HCT-15 colon it was 1.96 µM; in the test with HOP-62 NSCLC, 1.89 µM. Besides, the GI50 in the test on KM12 colon is 2.23 µM; in the test on MCF7 breast, 1.85 µM; in the test with NCI-H226 lung, 8.65 µM; in the test on T-47D breast, 1.99 µM. Besides, the TGI with 786-0 renal worked out at 3.44 µM; with COLO 205 colon it was 3.68 µM; in the test with EKVX NSCLC, 13.9 µM; in the test with HCC-2998 colon, 3.28 µM; in the test on HCT-15 colon it was 4.11 µM; in the test with HOP-62 NSCLC, 3.75 µM. In addition, the TGI in the test with KM12 colon worked out at 5 µM; in the test with MCF7 breast, 4.29 µM; in the test with NCI-H226 lung, 27.7 µM; in the test with T-47D breast, 4.31 µM.

For the molecule `CN(C)c1ccc(/C=C/C2=[N+](C)c3ccccc3C2(C)C)cc1`, the GI50 in the test on 786-0 renal was 2.06 µM; in the test on COLO 205 colon, 0.505 µM; in the test on EKVX NSCLC, 0.508 µM; in the test with HCC-2998 colon, 1.35 µM; with HCT-15 colon, 2.66 µM; with HOP-62 NSCLC it was 0.862 µM. Besides, the GI50 in the test with KM12 colon was 0.328 µM; with MCF7 breast, 0.382 µM; in the test on NCI-H226 lung, 1.57 µM; in the test with T-47D breast, 0.401 µM. Besides, the TGI in the test with 786-0 renal was found to be 18.9 µM; in the test on COLO 205 colon, 2.07 µM; in the test on EKVX NSCLC it was 20 µM; in the test on HCC-2998 colon, 11.5 µM; in the test on HCT-15 colon, 18.6 µM; with HOP-62 NSCLC it was 13.8 µM. Moreover, the TGI in the test with KM12 colon was found to be 5.85 µM; with MCF7 breast, 8.11 µM; in the test with NCI-H226 lung it was 26.1 µM; in the test with T-47D breast, 9.29 µM.

For `COc1cc(C(=O)N/N=C/c2ccc(N(C)C)cc2)cc(OC)c1OC`, the GI50 in the test with 786-0 renal was 0.66 µM; in the test on COLO 205 colon, 0.406 µM; with EKVX NSCLC it was greater than 100 µM; in the test with HCC-2998 colon, 0.551 µM; in the test with HCT-15 colon it was 0.447 µM; with HOP-62 NSCLC, 0.598 µM. In addition, the GI50 in the test on KM12 colon was 0.428 µM; in the test on MCF7 breast, 0.34 µM; with NCI-H226 lung it was 4.68 µM; in the test on T-47D breast it was greater than 100 µM. Moreover, the TGI was greater than 100 µM in the test with 786-0 renal; 1.64 µM in the test with COLO 205 colon; greater than 100 µM with EKVX NSCLC; 19.1 µM in the test on HCC-2998 colon; greater than 100 µM with HCT-15 colon; greater than 100 µM with HOP-62 NSCLC. Further, the TGI is 26.4 µM with KM12 colon, greater than 100 µM in the test on MCF7 breast, greater than 100 µM with NCI-H226 lung and greater than 100 µM in the test with T-47D breast.

On to `N#C[Se]CCCNS(=O)(=O)C1CC2C=CC1C2` (configuration not stated), for which the GI50 with 786-0 renal was 0.997 µM; with COLO 205 colon, 2.3 µM; in the test on EKVX NSCLC it was 0.491 µM; with HCC-2998 colon it was 1.95 µM; in the test with HCT-15 colon, 1.47 µM; in the test with HOP-62 NSCLC, 0.482 µM. Besides, the GI50 was 1.4 µM with KM12 colon, 0.588 µM with MCF7 breast, 0.267 µM in the test with NCI-H226 lung and 2.55 µM in the test with T-47D breast. The TGI amounted to 2.33 µM with 786-0 renal; 5.83 µM in the test with COLO 205 colon; 1.84 µM in the test on EKVX NSCLC; 4.73 µM in the test on HCC-2998 colon; 3.65 µM with HCT-15 colon; 1.82 µM in the test with HOP-62 NSCLC. Also, the TGI in the test on KM12 colon was 6.43 µM; with MCF7 breast, 5.55 µM; in the test with NCI-H226 lung, 0.674 µM; in the test on T-47D breast, 8.28 µM.

On to `NC(N)=N/N=C/c1ccc(-c2ccc(-c3cc(Cl)cc(Cl)c3)s2)cc1`, for which the GI50 was 1.74 µM in the test with 786-0 renal; 1.49 µM with COLO 205 colon; 1.84 µM in the test on EKVX NSCLC; 1.94 µM with HCC-2998 colon; 1.25 µM with HCT-15 colon; 1.79 µM with HOP-62 NSCLC. Besides, the GI50 in the test on KM12 colon was 1.87 µM; with MCF7 breast, 1.1 µM; with NCI-H226 lung, 2.33 µM; with T-47D breast, 2.02 µM. The TGI amounted to 3.66 µM in the test with 786-0 renal; 3.88 µM with COLO 205 colon; 4.03 µM in the test on EKVX NSCLC; 3.83 µM in the test with HCC-2998 colon; 2.76 µM in the test on HCT-15 colon; 4.05 µM in the test with HOP-62 NSCLC. The TGI was 3.56 µM with KM12 colon, 3.07 µM with MCF7 breast, 5.99 µM in the test on NCI-H226 lung and 4.54 µM with T-47D breast.

Regarding `Cc1c(O)c2c(c(O)c1Br)C(=O)C=CC2=O`, the GI50 in the test on 786-0 renal is 1.46 µM; in the test on COLO 205 colon, 0.334 µM; in the test on HCT-15 colon it was 0.451 µM; in the test on HOP-62 NSCLC it was 2.48 µM; in the test on KM12 colon, 3.55 µM; with MCF7 breast it was 0.41 µM. Besides, in the test on NCI-H226 lung, the GI50 was 5.44 µM. For the same molecule, the TGI with 786-0 renal was 0.428 µM and 3.02 µM; in the test on COLO 205 colon it was 0.428 µM and 1.45 µM; with EKVX NSCLC, 5.21 µM; with HCC-2998 colon, 3.31 µM and 3.82 µM; in the test on HCT-15 colon, 1.14 µM and 1.94 µM; in the test on HOP-62 NSCLC, 2.36 µM and 5.35 µM. Also, the TGI was 3.14 µM and 13.3 µM in the test with KM12 colon; 0.399 µM and 1.54 µM in the test on MCF7 breast; 5.77 µM and 18.7 µM in the test on NCI-H226 lung; 2.01 µM in the test with T-47D breast.

As to `Cc1ccc2c(c1)S(=O)(=O)c1ccc3ccccc3c1N2`, the TGI in the test on 786-0 renal, in the test with COLO 205 colon, in the test with EKVX NSCLC, in the test with HCC-2998 colon, in the test with HCT-15 colon and with HOP-62 NSCLC was greater than 100 µM throughout. In addition, the TGI with KM12 colon, with MCF7 breast, with NCI-H226 lung and with T-47D breast was greater than 100 µM throughout.

`Cn1c(NCC(O)CN2CCCC2)cc(=O)n(C)c1=O` (configuration not stated): the GI50 with 786-0 renal, in the test with COLO 205 colon, in the test on EKVX NSCLC, with HCC-2998 colon, with HCT-15 colon and with HOP-62 NSCLC was greater than 100 µM throughout. Further, the GI50 with KM12 colon, in the test with MCF7 breast, in the test on NCI-H226 lung and in the test on T-47D breast was greater than 100 µM throughout. In addition, the TGI in the test on 786-0 renal, in the test with COLO 205 colon, in the test with EKVX NSCLC, in the test on HCC-2998 colon, with HCT-15 colon and in the test on HOP-62 NSCLC was greater than 100 µM in each case. The TGI with KM12 colon, with MCF7 breast, in the test with NCI-H226 lung and with T-47D breast was greater than 100 µM throughout.
